From article PMC4331048 (Molecular and cellular biochemistry, 2011)

Target: CK2α (Homo sapiens, UniProt P68400)
Experiment: In vitro kinase assay, [γ-32P]ATP phosphorylation of purified CSQ2 by pure CK2α

CK2α, sequence (P68400 whole entry): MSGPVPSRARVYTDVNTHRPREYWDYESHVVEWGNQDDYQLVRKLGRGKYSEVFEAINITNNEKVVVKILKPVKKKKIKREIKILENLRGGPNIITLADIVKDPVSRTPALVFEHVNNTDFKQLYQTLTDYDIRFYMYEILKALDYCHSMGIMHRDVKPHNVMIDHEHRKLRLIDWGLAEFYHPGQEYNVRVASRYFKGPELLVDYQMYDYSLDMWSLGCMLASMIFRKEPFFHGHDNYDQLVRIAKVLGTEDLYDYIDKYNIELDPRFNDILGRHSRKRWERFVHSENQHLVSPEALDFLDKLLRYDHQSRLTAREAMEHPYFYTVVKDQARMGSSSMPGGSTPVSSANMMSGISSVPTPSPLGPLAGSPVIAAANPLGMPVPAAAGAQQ

IC50: ~10 µM
SMILES: O=C(O)/C=C/c1cc(Br)c(Br)c(Br)c1Br [TBCA]
